Series [1] is described as follows: Plasma experiment (protein coagulation in anticoagulant blood). Particulars: added to 1 mL fresh human anticoagulant blood in test tube. The method, then: Plasma experiment: A plasma experiment was performed using absolute ethanol and the sclerosing agent solution of Embodiment 1. As shown in A of FIG. 3, 1 mL of fresh human anticoagulant blood was taken. As shown in C of FIG. 3, absolute ethanol was added to a test tube, and as shown in B of FIG. 3, the sclerosing agent solution of Embodiment 1 was added to a test tube.

Series [2] deals with rabbit ear edge. Kind of series: Animal experiment: rabbit ear edge injection. The series is classed as in vivo. Particulars: 0.5 mL injected, New Zealand white rabbits. The method, then:
Animal experiment: A first experimental group: the experimental subjects were 20 New Zealand white rabbits with the body weight of 1.5 kg, injected with 0.5 mL of absolute ethanol solution. A second experimental group: the experimental subjects were 20 New Zealand white rabbits with the body weight of 1.5 kg, injected with 0.5 mL of the foam sclerosing agent of Embodiment 1. The edges of ears of the experimental subjects in the first experimental group and the second experimental group were all intact before the experiment.

Molecules are shown by their SMILES.

Take `CCO` [absolute ethanol]: in series [1], the “coagulation of the protein in the plasma” value is given as “coagulated the protein in the plasma”. The “reaction of ear edge 3 days after the injection” value in series [2] (3 days) is listed as “the whole ear has obvious hematoma”. In series [2] (7 days), the “reaction of ear edge 7 days after the injection” value is reported as “the swelling is reduced”. In addition, in series [2] (25 days), the “reaction of ear edge 25 days after the injection” value was “the local blood vessels and some normal tissues are destroyed, resulting in tissue defect of the rabbit ear edge”. The “reaction of ear edge immediately after the injection” value in series [2] (immediately after injection) is “extensive and large-area hematoma appears on the ear edge immediately”.

The values are drawn from patent publication US11975099B2, “Ethanol foam sclerosing agent for treating vascular anomalies and preparation method thereof” (QILU HOSPITAL OF SHANDONG UNIVERSITY, priority 2019, dated 2024).
